Earlier results, collected in US20260284237A1, “RADIOLABELED FAPI COMPLEX, AND PREPARATION METHOD THEREFOR AND USE THEREOF” (BEIJING NORMAL UNIVERSITY, priority 2023, published 2026).

What was measured:
FAP = conditions: background statement
[1] = background statement

**Q.** Which “affinity and specificity toward the FAP” value (FAP) does the source give for N#C[C@@H]1CC(F)(F)CN1C(=O)CNC(=O)c1ccnc2ccc(OCCCN3CCN(C(=O)CN4CCN(CC(=O)O)CCN(CC(=O)O)CCN(CC(=O)O)CC4)CC3)cc12 [FAPI-04] here?
**A.** favorable affinity and specificity toward the FAP

**Q.** And the “tumor uptake as radiotherapeutic drug” value [1]?
**A.** relatively low tumor uptake
